Target: H+/K+ ATPase (Oryctolagus cuniculus (Rabbit), UniProt P27112)
Experiment: Determination of compounds' inhibition of H+/K+ ATPase enzyme activity
Format: biochemical
Conditions: H+/K+ ATPase extracted from rabbit stomach; malachite green detection, 500 μM ATP, pH 6.5
Text: Determination of Compounds' Inhibition of H^+/K^+ ATPase Enzyme Activity
The following experiment is used to determine the inhibitory effect of the compound of the present invention on the H+/K+ATPase enzyme activity.
• Plate reader: SpectraMax M5(MD) • Malachite Green (Sigma Aldrich, 213020-25G) • Ammonium molybdate (Sigma Aldrich, 277908-20G) • ATP (Sigma Aldrich, A1852-1VL). 2. Buffer Preparation
Enzyme working solution: titrating the enzyme, diluting the enzyme with buffer 1, and during the reaction, taking 5 μl of the diluted solution into 50 μl reaction system.
ATP solution: 100 mM ATP was diluted to 5 mM with no K+buffer, and 5 μl of the diluted solution was added to the 50 μl reaction system, that is, the final concentration of ATP was 500 μM.
MLG color development liquid: 0.12% MLG, 7.5% ammonium molybdate, 11% Tween-20 was mixed as 100:25:2, and adding 15 μl of the mixture into each well during detection.
Buffer 1: 50 mM Tris-HCl pH 6.5, 5 mM magnesium chloride (magnesium chloride), 10 μM valinomycin (valinomycin).
Buffer 2: 50 mM Tris-HCl pH 6.5, 5 mM magnesium chloride (magnesium chloride), 10 μM valinomycin (valinomycin), 20 mM KCl.
Homogenization buffer: 10 mmol/L Tris-HCl, pH 6.8, 0.25M sucrose (sucrose), 1 mmol/LEDTA
7.5% Ficoll layering solution: homogenization buffer+7.5% (W/W) (Ficoll 400).
3.1. H^+/K^+ ATPase Enzyme Extraction
(1) The stomach tissue of the rabbit was separated, and the blood was washed with tap water, food residue.
(2) The fundus portion was thoroughly washed with pre-cooled NaCl solution to remove surface mucus.
(3) The stripped mucosa was filled into a sample bag or a 50 ml centrifuge tube, and quickly freezing in a liquid nitrogen tank.
(4) The tissue was removed, minced with surgical scissors, and a pre-cooled homogenization buffer (4 ml/g tissue) was added and homogenized in a tissue homogenizer for 2 to 10 minutes.
(5) After homogenization, if there were larger tissue particles, they could be removed by centrifugation (600 g, 10 min), and then the supernatant was transferred to a clean centrifuge tube. After centrifugation at 20000 g for 30 minutes, then the supernatant was transferred to a clean centrifuge tube at 100000 g for 90 minutes and the precipitate was collected.
(6) Resuspending the precipitate with homogenization buffer, blowing uniformly, adding 7.5% Ficoll layering solution at equal ratio, centrifuging at 100000 g for 90 minutes, and collecting the precipitate.
(7) Resuspending the precipitate with homogenization buffer, blowing uniformly, and the protein concentration was measured by Bradford. Freezing in tubes at −80° C. for later use.
3.2. H^+/K^+ ATPase Activity Experiment
(1) Adding 35 μl of reaction buffer to each experimental well, and then added 35 μl of buffer 1.
(2) Adding 5 μl buffer 1 containing 10% DMSO to the whole enzyme and buffer well.
(3) Adding 5 μl of 10× compound working solution to the compound well and mixing well.
(4) Adding 5 μl of buffer 1 to the buffer well.
(5) Adding 5 μl of 10× enzyme working solution to the remaining wells, mixing and incubating at 37° C. for 30 minutes
(6) Adding 5 μl of 10× ATP working solution to all experimental wells, and incubating at 37° C. for 20 min.
(7) Adding 15 μl MLG chromogenic solution to all experimental wells, and uniformly mixing and incubating at room temperature for 5-30 min.
(8) The reading number of 620 nm was detected by an M5 instrument. […]

Chain of H+/K+ ATPase (P27112 whole entry): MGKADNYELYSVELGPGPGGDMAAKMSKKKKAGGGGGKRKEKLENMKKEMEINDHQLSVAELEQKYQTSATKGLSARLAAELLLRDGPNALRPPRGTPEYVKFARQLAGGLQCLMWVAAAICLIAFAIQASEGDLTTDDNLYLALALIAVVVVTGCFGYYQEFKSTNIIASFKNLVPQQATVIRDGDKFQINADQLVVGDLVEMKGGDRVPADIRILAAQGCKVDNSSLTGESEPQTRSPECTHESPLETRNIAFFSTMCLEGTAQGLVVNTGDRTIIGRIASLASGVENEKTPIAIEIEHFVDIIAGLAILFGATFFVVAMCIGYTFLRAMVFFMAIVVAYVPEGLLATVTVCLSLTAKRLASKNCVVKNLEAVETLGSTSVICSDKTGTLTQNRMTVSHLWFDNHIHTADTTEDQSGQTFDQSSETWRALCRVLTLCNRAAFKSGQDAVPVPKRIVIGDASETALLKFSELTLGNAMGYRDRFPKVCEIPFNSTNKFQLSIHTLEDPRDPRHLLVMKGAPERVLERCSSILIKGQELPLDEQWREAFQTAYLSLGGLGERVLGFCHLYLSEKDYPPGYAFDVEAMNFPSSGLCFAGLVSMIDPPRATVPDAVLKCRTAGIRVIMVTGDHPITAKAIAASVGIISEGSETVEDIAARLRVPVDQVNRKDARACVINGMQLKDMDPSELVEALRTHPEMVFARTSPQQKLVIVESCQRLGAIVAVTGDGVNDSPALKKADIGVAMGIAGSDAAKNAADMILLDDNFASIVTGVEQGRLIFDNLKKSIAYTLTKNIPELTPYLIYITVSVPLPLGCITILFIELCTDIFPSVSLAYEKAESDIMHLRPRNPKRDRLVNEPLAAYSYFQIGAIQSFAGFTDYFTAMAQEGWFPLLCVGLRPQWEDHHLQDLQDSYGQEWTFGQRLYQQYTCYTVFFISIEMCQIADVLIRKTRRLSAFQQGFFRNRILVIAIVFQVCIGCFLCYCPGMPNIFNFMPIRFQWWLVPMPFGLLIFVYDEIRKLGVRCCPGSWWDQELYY
Chain of H+/K+ ATPase (P18597 whole entry partner): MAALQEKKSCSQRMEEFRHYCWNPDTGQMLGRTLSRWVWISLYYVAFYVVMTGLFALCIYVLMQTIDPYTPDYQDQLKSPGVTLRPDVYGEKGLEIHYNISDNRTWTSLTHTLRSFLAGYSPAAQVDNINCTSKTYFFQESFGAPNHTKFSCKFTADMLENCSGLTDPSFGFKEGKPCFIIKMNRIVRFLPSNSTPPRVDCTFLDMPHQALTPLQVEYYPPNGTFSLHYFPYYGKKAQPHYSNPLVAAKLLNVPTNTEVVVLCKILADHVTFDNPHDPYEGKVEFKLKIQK

Row | SMILES | IC50 [nM]
1 | CN1Cc2nn(Cc3cccc(N4CCCC4)c3)c(-c3ccccc3F)c2C1 [Example 3, 3-(2-fluorophenyl)-5-methyl-2-(3-(pyrrolidin-1-yl)benzyl)-2,4,5,6-tetrahydropyrrolo[3,4-c]pyrazole] | 1860
2 | CN1Cc2nn(Cc3cccc(N4CCOCC4)c3)c(-c3ccccc3F)c2C1 [Example 1, 4-(3-((3-(2-fluorophenyl)-5-methyl-5,6-dihydropyrrolo [3,4-c]pyrazole-2(4H)-yl)methyl)phenyl) morpholine] | 410
3 | CN1Cc2nn(Cc3cccc(N4CCCCC4)c3)c(-c3ccccc3F)c2C1 [Example 2, 3-(2-fluorophenyl)-5-methyl-2-(3-(piperidin-1-yl)benzyl)-2,4,5,6-tetrahydropyrrolo[3,4-c]pyrazole] | 431
4 | CN1Cc2nn(Cc3cccc(N4CCC(N5CCCCC5)CC4)c3)c(-c3ccccc3F)c2C1 [Example 5, 2-(3-([1,4′-Bipiperidine]-1′-yl)benzyl)-3-(2-fluorophenyl)-5-methyl-2,4,5,6-tetrahydropyrrolo[3,4-c]pyrazole] | 2580
5 | CN1CCN(c2cccc(Cn3nc4c(c3-c3ccccc3F)CN(C)C4)c2)CC1 [Example 4, 3-(2-fluorophenyl)-5-methyl-2-(3-(4-methylpiperazin-1-yl)benzyl)-2,4,5,6-tetrahydro pyrrolo [3,4-c] pyrazole] | 580

From patent US12391696B2, “Pyrrolopyrazole derivatives, preparation method thereof and application thereof in medicine” (SHANGHAI MEDICILON INC., priority 2019, dated 2025)
